In ChEMBL document CHEMBL4011582, “Human drug-induced liver injury severity is highly associated with dual inhibition of liver mitochondrial function and bile salt export pump” (Hepatology, 2014):
pIC50: −log10 of the molar value.

Columns and labels:
Bile salt export pump = Bile salt export pump (Homo sapiens, UniProt O95342); format: ADME
clinical = details: human
Liver = format: ADME, mitochondria, Rattus norvegicus, Sprague-Dawley

Chain of Bile salt export pump (O95342 whole entry): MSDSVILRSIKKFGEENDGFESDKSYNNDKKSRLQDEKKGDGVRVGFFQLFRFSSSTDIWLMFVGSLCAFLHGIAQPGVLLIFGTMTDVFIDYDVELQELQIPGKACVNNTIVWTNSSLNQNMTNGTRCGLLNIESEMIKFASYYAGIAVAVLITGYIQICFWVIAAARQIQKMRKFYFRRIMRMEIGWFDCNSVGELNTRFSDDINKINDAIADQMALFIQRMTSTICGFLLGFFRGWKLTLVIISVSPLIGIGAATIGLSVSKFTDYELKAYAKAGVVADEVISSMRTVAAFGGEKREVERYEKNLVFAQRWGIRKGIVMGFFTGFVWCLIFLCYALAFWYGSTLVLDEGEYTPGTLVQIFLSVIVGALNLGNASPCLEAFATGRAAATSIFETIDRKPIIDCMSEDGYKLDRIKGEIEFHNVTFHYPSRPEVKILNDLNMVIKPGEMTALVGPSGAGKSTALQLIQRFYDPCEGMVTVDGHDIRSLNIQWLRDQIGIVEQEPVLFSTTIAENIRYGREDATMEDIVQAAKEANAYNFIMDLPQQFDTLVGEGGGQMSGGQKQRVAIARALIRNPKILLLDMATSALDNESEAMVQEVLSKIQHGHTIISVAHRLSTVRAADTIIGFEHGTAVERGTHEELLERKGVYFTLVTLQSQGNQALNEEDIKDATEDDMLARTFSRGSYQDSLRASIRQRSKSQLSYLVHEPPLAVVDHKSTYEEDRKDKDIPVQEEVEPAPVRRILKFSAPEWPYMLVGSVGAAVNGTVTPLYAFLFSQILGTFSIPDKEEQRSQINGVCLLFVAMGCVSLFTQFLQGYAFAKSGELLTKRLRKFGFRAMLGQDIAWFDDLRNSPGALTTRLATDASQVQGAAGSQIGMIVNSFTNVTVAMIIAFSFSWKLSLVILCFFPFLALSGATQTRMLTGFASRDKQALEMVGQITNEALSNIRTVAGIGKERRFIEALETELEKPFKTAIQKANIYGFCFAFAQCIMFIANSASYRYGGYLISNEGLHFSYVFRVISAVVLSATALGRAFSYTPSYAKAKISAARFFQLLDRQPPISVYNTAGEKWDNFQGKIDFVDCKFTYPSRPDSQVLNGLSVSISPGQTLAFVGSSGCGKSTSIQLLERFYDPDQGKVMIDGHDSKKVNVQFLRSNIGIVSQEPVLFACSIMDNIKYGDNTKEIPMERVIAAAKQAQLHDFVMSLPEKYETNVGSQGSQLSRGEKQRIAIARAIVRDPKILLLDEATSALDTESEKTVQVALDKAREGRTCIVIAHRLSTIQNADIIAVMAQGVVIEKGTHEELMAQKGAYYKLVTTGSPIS

SMILES	pIC50 (Bile salt export pump; read-out: IC50)	Cmax (clinical) [nM]	IC50 (Liver)	pIC50 (Bile salt export pump)
Oc1ncnc2[nH]ncc12 [ALLOPURINOL]	< 4.00			
C[C@H]1C[C@H]2[C@@H]3CCC4=CC(=O)C=C[C@]4(C)[C@@]3(Cl)[C@@H](O)C[C@]2(C)[C@@]1(O)C(=O)CO [BECLOMETHASONE]	4.99	0.2	Non-Toxic	
CCc1oc2ccccc2c1C(=O)c1cc(Br)c(O)c(Br)c1 [BENZBROMARONE]	4.80	4340		
CC(O)(CS(=O)(=O)c1ccc(F)cc1)C(=O)Nc1ccc(C#N)c(C(F)(F)F)c1 (centres undefined) [BICALUTAMIDE]	4.53	1970		
COc1ccccc1Oc1c(NS(=O)(=O)c2ccc(C(C)(C)C)cc2)nc(-c2ncccn2)nc1OCCO [BOSENTAN]	4.54	7430		
O=C1CC2(CCCC2)CC(=O)N1CCCCN1CCN(c2ncccn2)CC1 [BUSPIRONE]	< 4.00	5	Non-Toxic	
C[C@H](CCC(=O)O)[C@H]1CC[C@H]2[C@@H]3[C@H](O)C[C@@H]4C[C@H](O)CC[C@]4(C)[C@H]3CC[C@]12C [CHENODIOL]	4.97	8000	Non-Toxic	
CC(C)/N=c1\cc2n(-c3ccc(Cl)cc3)c3ccccc3nc-2cc1Nc1ccc(Cl)cc1 [CLOFAZIMINE]		1480	Non-Toxic	
O=C(O)Cc1ccccc1Nc1c(Cl)cccc1Cl [DICLOFENAC]	4.36			
CC(CCc1ccc(O)cc1)NCCc1ccc(O)c(O)c1 (centres undefined) [DOBUTAMINE]	< 4.00	1340	Non-Toxic	
Clc1ccc(COC(Cn2ccnc2)c2ccc(Cl)cc2Cl)cc1 (centres undefined) [ECONAZOLE]		1		4.87
C#C[C@]1(OC(C)=O)CC[C@H]2[C@@H]3CCC4=C[C@@H](OC(C)=O)CC[C@@H]4[C@H]3CC[C@@]21C [ETHYNODIOL DIACETATE]	4.21	29		
CC(C)OC(=O)C(C)(C)Oc1ccc(C(=O)c2ccc(Cl)cc2)cc1 [FENOFIBRATE]	4.39	12100		
CC(C)(C)NC(=O)[C@H]1CC[C@H]2[C@@H]3CC[C@H]4NC(=O)C=C[C@]4(C)[C@H]3CC[C@]12C [FINASTERIDE]		99	Non-Toxic	
CCOC(=O)c1ncn2c1CN(C)C(=O)c1cc(F)ccc1-2 [FLUMAZENIL]	< 4.00	1120	Non-Toxic	
CC(C)C(=O)Nc1ccc([N+](=O)[O-])c(C(F)(F)F)c1 [FLUTAMIDE]	4.17	362		
CC(C)n1c(/C=C/C(O)CC(O)CC(=O)O)c(-c2ccc(F)cc2)c2ccccc21 (centres undefined) [FLUVASTATIN]		663	Non-Toxic	
Nc1nc(=O)c2nc(CNc3ccc(C(=O)N[C@@H](CCC(=O)O)C(=O)O)cc3)cnc2[nH]1 [FOLIC ACID]		135	Non-Toxic	
CCC1=C(C)CN(C(=O)NCCc2ccc(S(=O)(=O)NC(=O)N[C@H]3CC[C@H](C)CC3)cc2)C1=O [GLIMEPIRIDE]	4.47	1120	Non-Toxic	
Cc1ccc(NC(=O)c2ccc(CN3CCN(C)CC3)cc2)cc1Nc1nccc(-c2cccnc2)n1 [IMATINIB]		7090	Non-Toxic	

SMILES	pIC50 (Bile salt export pump; read-out: IC50)	Cmax (clinical) [nM]	IC50 (Liver)	pIC50 (Bile salt export pump)
CCCCC1=NC2(CCCC2)C(=O)N1Cc1ccc(-c2ccccc2-c2nnn[nH]2)cc1 [IRBESARTAN]		3500	Non-Toxic	
CS(=O)(=O)CCNCc1ccc(-c2ccc3ncnc(Nc4ccc(OCc5cccc(F)c5)c(Cl)c4)c3c2)o1 [LAPATINIB]		4180	Non-Toxic	
CN(C)C(=O)C(CCN1CCC(O)(c2ccc(Cl)cc2)CC1)(c1ccccc1)c1ccccc1 [LOPERAMIDE]	4.17	8	Non-Toxic	
CCCCc1nc(Cl)c(CO)n1Cc1ccc(-c2ccccc2-c2nnn[nH]2)cc1 [LOSARTAN]		651	Non-Toxic	
CC[C@H](C)C(=O)O[C@H]1C[C@@H](C)C=C2C=C[C@H](C)[C@H](CC[C@@H]3C[C@@H](O)CC(=O)O3)[C@H]21 [LOVASTATIN]		25	Non-Toxic	
Cc1cccc(Nc2ccccc2C(=O)O)c1C [MEFENAMIC ACID]	4.24	26900		
Cc1ncc2n1-c1ccc(Cl)cc1C(c1ccccc1F)=NC2 [MIDAZOLAM]		650	Non-Toxic	
C[C@@H]1C[C@H]2[C@@H]3CCC4=CC(=O)C=C[C@]4(C)[C@@]3(Cl)[C@@H](O)C[C@]2(C)[C@@]1(O)C(=O)CCl [MOMETASONE]	5.03	0.3	Non-Toxic	
CCc1nn(CCCN2CCN(c3cccc(Cl)c3)CC2)c(=O)n1CCOc1ccccc1 [NEFAZODONE]	5.15	6800		
COC(=O)C1=C(C)NC(C)=C(C(=O)OC)C1c1ccccc1[N+](=O)[O-] [NIFEDIPINE]	4.16		Non-Toxic	
COC(=O)C1=C(C)NC(C)=C(C(=O)OCC(C)C)C1c1ccccc1[N+](=O)[O-] (centres undefined) [NISOLDIPINE]		12.9	Non-Toxic	
CCN(CC)CC#CCOC(=O)C(O)(c1ccccc1)C1CCCCC1 (centres undefined) [OXYBUTYNIN]		22	Non-Toxic	
CC(COc1ccccc1)N(CCCl)Cc1ccccc1 (centres undefined) [PHENOXYBENZAMINE]		197	Non-Toxic	
Cc1ccc(N(CC2=NCCN2)c2cccc(O)c2)cc1 [PHENTOLAMINE]		86	Non-Toxic	
CO[C@H]1/C=C/O[C@@]2(C)Oc3c(C)c(O)c4c(c3C2=O)C2=NC3(CCN(CC(C)C)CC3)NC2=C(NC(=O)/C(C)=C\C=C\[C@H](C)[C@H](O)[C@@H](C)[C@@H](O)[C@@H](C)[C@H](OC(C)=O)[C@@H]1C)C4=O [RIFABUTIN]		685	Non-Toxic	
CO[C@H]1/C=C/O[C@@]2(C)Oc3c(C)c(O)c4c(O)c(c(/C=N/N5CCN(C)CC5)c(O)c4c3C2=O)NC(=O)/C(C)=C\C=C\[C@H](C)[C@H](O)[C@@H](C)[C@@H](O)[C@@H](C)[C@H](OC(C)=O)[C@@H]1C [RIFAMPIN]	4.73	8500	Non-Toxic	
CO[C@H]1/C=C/O[C@@]2(C)Oc3c(C)c(O)c4c(O)c(cc(O)c4c3C2=O)NC(=O)/C(C)=C\C=C\[C@H](C)[C@H](O)[C@@H](C)[C@@H](O)[C@@H](C)[C@H](OC(C)=O)[C@@H]1C [RIFAMYCIN]	5.02	2780	Non-Toxic	
CC(C)c1nc(CN(C)C(=O)N[C@H](C(=O)N[C@@H](Cc2ccccc2)C[C@H](O)[C@H](Cc2ccccc2)NC(=O)OCc2cncs2)C(C)C)cs1 [RITONAVIR]		19700	Non-Toxic	
O=C1C(CC[S+]([O-])c2ccccc2)C(=O)N(c2ccccc2)N1c1ccccc1 (centres undefined) [SULFINPYRAZONE]	4.96	44200	Non-Toxic	
CN1CCN(CCCN2c3ccccc3Sc3ccc(C(F)(F)F)cc32)CC1 [TRIFLUOPERAZINE]		5.3	Non-Toxic	
